Test results published in patent US5212189A, “Thiadiazole or oxadiazole analogs of fenamic acids containing substituted hydroxamate side chains as antiinflammatory agents” (Warner-Lambert Company, priority 1991, dated 1993).
Like-named read-outs stand apart in the source and are kept apart here.

What was measured:
cyclooxygenase = target: T1, cyclooxygenase (Rattus norvegicus, UniProt Q63921); test: ARBC whole cell cyclooxygenase assay: inhibition of PGF2α formation in A23187-stimulated RBL-1 cells; assay type: cell-based; conditions: RBL-1 whole cells; for IC50: RIA of PGF2α
T1 construct: host or cells: RBL-1 (rat basophilic leukemia)
T1 sequence (Q63921 27-602): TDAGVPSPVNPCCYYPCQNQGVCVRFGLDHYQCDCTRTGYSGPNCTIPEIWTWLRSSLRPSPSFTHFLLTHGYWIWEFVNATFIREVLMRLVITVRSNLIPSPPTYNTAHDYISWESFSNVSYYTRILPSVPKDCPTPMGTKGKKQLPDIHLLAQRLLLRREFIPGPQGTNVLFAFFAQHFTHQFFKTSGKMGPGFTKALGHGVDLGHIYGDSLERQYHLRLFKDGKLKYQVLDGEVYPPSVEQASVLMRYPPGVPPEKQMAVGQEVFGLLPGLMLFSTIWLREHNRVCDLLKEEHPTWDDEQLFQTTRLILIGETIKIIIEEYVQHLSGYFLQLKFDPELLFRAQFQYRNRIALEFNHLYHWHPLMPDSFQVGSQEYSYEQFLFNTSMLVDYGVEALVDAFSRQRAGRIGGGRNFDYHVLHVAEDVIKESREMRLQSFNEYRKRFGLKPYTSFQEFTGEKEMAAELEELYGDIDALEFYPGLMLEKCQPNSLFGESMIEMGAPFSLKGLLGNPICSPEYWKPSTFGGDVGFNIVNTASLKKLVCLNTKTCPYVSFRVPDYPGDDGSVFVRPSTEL
Method: (§1) ARBL/ARBC WHOLE CELL 5-LIPOXYGENASE AND CYCLOOXYGENASE ASSAYS
(§2) The rat basophilic leukemia cell line (RBL-1) was obtained from the American Type Culture Collection (Rockville, MD).
(§3) Radioimmunoassay (RIA) kits of LTB4 and PGF2α were obtained from Amersham (Arlington Heights, Ill.) and Seragen (Boston, Mass.), respectively.
(§4) RBL-1 cells are grown in suspension culture in Eagle's minimum essential medium supplemented with 12% fetal bovine serum at 37° C. in an incubator supplied with air 5% carbon dioxide. Cells are harvested by centrifugation. They are washed with cold phosphate-buffered saline, pH 7.4 (PBS; NaCl, 7.1 g; Na2 HPO4, 1.15 g; KH2 PO4, 0.2 g; and KCl, 0.2 g/L). Cells are finally suspended in PBS containing 1.0 mM calcium at a density of 2 × 10^6 cells/mL Cells are incubated and without test agent (in DMSO) (1% DMSO is without effect on arachidonic acid metabolism) for 10 minutes at room temperature. Calcium ionophore A23187 (5 μM) is added and cells are incubated for 7 minutes at 37° C. The reaction is stopped by chilling the tubes on ice for 10 minutes. Cells are separated by centrifugation and the supernatant is stored at -20° C. Aliquots (100 μL) are analyzed for LTB4 and PGF2α using radioimmunoassay kits as provided by the supplier.
(§5) Table 1 contains biochemical data for compounds of Formula I obtained from this whole cell assay as amount of inhibition at 10 μM or IC50 s which are calculated as the concentration of a test compound in micromoles (μM) causing 50% inhibition of LTB4 or PGF2α formation.

5-lipoxygenase = target: T2, 5-lipoxygenase (Rattus norvegicus, UniProt P12527); test: ARBL whole cell 5-lipoxygenase assay: inhibition of LTB4 formation in A23187-stimulated RBL-1 cells; assay type: cell-based; conditions: RBL-1 whole cells; for IC50: RIA of LTB4
T2 construct: host or cells: RBL-1 (rat basophilic leukemia)
T2 sequence (P12527 1-673): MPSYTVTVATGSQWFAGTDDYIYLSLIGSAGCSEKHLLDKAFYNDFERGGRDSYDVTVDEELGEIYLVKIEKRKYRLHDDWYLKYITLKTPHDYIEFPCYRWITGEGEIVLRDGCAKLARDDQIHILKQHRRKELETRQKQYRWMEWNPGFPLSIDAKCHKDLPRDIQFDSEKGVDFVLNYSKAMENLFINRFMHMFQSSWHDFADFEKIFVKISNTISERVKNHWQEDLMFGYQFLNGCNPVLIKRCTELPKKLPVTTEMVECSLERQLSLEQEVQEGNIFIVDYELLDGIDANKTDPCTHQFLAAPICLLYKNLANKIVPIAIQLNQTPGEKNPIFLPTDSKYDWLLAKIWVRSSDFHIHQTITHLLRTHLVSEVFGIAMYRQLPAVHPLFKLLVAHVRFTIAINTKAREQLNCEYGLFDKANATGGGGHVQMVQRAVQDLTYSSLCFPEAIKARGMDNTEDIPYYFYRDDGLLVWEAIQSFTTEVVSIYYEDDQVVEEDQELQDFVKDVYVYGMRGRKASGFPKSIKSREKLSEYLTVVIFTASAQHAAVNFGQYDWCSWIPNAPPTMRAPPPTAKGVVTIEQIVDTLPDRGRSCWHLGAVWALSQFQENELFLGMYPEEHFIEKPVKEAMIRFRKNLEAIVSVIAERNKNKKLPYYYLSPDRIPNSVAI
Method: as §1, §2, §3, §4, §5

[1] = read-out: ARBC, inhibition of PGF2α at 10 μM (class symbol)
[2] = read-out: ARBL, amount of inhibition of LTB4 at 10 μM
[3] = read-out: ARBL, inhibition of LTB4 at 10 μM (class symbol)

| Structure (SMILES) | IC50 (cyclooxygenase) [nM] | IC50 (5-lipoxygenase) [nM] | inhibition at 10 µM (cyclooxygenase; [1]) [%] | further results |
| --- | --- | --- | --- | --- |
| CNC(=O)N(O)C(C)c1cccc(Nc2ccccc2-c2n[nH]c(=O)o2)c1Cl (stereo not shown) [Example 16] | 360 | 1870 | – | – |
| CC(=O)N(O)C(C)c1cccc(Nc2ccccc2-c2nnc(N)o2)c1Cl (stereo not shown) [Example 17, N-[1-[3-[[2-(5-Amino-1,3,4-oxadiazol-2-yl)phenyl]amino]-2-chlorophenyl]ethyl]-N-hydroxyacetamide] | – | – | < 40 | inhibition at 10 µM (5-lipoxygenase; [2]): 100% |
| CC(=O)N(O)C(C)c1cccc(Nc2ccccc2-c2n[nH]c(=O)o2)c1Cl (stereo not shown) [Example 13] | 1880 | 680 | – | – |
| CCOC(=O)N(O)C(C)c1cccc(Nc2ccccc2-c2n[nH]c(=S)o2)c1Cl (stereo not shown) [Example 11, Ethyl ester of [1-[2-chloro-3-[[2-(4,5-dihydro-5-thioxo-1,3,4 oxadiazol-2-yl)phenyl]amino]phenyl]-ethyl]hydroxycarbamic acid] | 910 | 1140 | – | – |
| CCOC(=O)N(O)C(C)c1cccc(Nc2ccccc2-c2n[nH]c(=O)o2)c1Cl (stereo not shown) [Example 15, Ethyl ester of [1-[2-chloro-3-[[2-(4,5-dihydro-5-oxo-1,3,4-voxadiazol-2-yl)phenyl]amino]phenyl]-ethyl]hydroxycarbamic acid] | 860 | 1090 | – | – |
| CNC(=O)N(O)C(C)c1cccc(Nc2ccccc2-c2n[nH]c(=S)o2)c1Cl (stereo not shown) [Example 12, N-[1-[2-chloro-3-[[(4,5-dihydro-5-thioxo-1,3,4-oxadiazol-2-yl)phenyl]amino]phenyl]ethyl]-N-hydroxy-N'-methylurea] | – | – | – | inhibition at 10 µM (cyclooxygenase; read-out: ARBC, amount of inhibition of PGF2α at 10 μM): 100%; inhibition at 10 µM (5-lipoxygenase; [3]): < 40% |
| CC(=O)N(O)C(C)c1cccc(Nc2ccccc2-c2n[nH]c(=O)o2)c1 (stereo not shown) [Example 14, N-[1-[3-[[2-(4,5-dihydro-5-oxo-1,3,4-oxadiazol-2-yl)phenyl]amino]phenyl]ethyl]-N-hydroxyacetamide] | – | – | < 40 | inhibition at 10 µM (5-lipoxygenase; [2]): 100% |
| CC(=O)N(O)C(C)c1c(C)ccc(Nc2ccccc2-c2n[nH]c(=S)o2)c1C (stereo not shown) [Example 9, N-[1-[3-[[2-(4,5-dihydro-5-thioxo 1,3,4-oxadiazol-2 yl)phenyl]amino]-2,6 dimethylphenyl]ethyl]-N-hydroxyacetamide] | > 10000 | 5930 | – | – |
| CC(=O)N(O)C(C)c1cccc(Nc2ccccc2-c2n[nH]c(=S)o2)c1 (stereo not shown) [Example 10, N-[1-[3-[[2-(4,5-dihydro-5-thioxo-1,3,4-oxadiazol-2-yl)phenyl]amino]phenyl]ethyl]-N-hydroxyacetamide] | – | – | < 40 | inhibition at 10 µM (5-lipoxygenase; [3]): < 40% |
| CC(=O)N(O)C(C)c1cccc(Nc2ccccc2-c2n[nH]c(=S)o2)c1C (stereo not shown) [Example 8, N-[1-[3-[[2-(4,5-dihydro-5 thioxo 1,3,4-oxadiazol-2 yl)phenyl]amino]-2 methylphenyl]ethyl]-N-hydroxyacetamide] | – | – | < 40 | inhibition at 10 µM (5-lipoxygenase; [2]): 66% |
| CC(=O)N(O)C(C)c1cccc(Nc2ccccc2-c2n[nH]c(=S)o2)c1Cl (stereo not shown) [Example 7, N-[1-[3-[[2-(4,5-Dihydro-5-thioxo-1,3,4 oxadiazol-2-yl)phenyl]amino]-2-chlorophenyl]ethyl]-N-hydroxy Acetamide] | 1070 | 9590 | – | – |
